Experimental data published in ChEMBL document CHEMBL3991601, “The target landscape of clinical kinase drugs” (Science, 2017).
The source made the active and inactive calls. Rule as the data show it: actives have a measured Kd and inactives only a lower limit.

Assays:
[1] = target: T1, Serine/threonine-protein kinase D2 (Homo sapiens, UniProt Q9BZL6)
T1 sequence (Q9BZL6 whole entry): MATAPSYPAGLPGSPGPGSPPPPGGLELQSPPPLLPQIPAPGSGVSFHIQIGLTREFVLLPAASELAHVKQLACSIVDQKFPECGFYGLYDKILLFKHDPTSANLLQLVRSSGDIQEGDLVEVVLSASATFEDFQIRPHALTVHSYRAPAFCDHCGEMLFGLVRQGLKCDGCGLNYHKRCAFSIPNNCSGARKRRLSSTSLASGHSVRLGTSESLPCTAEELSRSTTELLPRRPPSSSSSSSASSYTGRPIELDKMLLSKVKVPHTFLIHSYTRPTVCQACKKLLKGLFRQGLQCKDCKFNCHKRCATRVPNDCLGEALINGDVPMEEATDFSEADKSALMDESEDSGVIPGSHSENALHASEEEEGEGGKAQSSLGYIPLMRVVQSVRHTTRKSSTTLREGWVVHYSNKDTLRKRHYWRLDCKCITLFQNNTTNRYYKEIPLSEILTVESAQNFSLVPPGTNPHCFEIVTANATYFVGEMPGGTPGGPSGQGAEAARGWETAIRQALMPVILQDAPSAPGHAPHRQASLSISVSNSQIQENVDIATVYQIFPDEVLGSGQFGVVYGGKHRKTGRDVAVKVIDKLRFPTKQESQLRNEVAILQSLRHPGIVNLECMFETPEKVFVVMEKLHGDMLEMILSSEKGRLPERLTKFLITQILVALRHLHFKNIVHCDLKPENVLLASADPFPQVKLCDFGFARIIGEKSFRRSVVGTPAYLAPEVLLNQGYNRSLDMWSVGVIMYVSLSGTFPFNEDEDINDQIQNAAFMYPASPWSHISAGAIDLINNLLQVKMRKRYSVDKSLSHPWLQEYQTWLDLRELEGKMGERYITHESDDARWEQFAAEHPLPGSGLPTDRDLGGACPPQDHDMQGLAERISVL

[2] = target: T2, Phosphorylase b kinase gamma catalytic chain, liver/testis isoform (Homo sapiens, UniProt P15735)
T2 sequence (P15735 whole entry): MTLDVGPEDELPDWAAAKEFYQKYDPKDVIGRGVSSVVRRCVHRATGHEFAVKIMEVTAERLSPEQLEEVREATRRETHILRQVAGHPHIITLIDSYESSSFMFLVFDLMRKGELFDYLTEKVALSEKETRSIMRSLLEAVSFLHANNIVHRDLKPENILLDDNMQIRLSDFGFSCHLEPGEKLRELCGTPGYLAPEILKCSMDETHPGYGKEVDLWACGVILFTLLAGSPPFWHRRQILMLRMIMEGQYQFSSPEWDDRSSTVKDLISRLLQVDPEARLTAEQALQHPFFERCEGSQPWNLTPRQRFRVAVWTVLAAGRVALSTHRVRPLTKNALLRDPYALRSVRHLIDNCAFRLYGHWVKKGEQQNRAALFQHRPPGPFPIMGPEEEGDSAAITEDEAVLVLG

[3] = target: T3, Cyclin-G-associated kinase (Homo sapiens, UniProt O14976)
T3 sequence (O14976 whole entry): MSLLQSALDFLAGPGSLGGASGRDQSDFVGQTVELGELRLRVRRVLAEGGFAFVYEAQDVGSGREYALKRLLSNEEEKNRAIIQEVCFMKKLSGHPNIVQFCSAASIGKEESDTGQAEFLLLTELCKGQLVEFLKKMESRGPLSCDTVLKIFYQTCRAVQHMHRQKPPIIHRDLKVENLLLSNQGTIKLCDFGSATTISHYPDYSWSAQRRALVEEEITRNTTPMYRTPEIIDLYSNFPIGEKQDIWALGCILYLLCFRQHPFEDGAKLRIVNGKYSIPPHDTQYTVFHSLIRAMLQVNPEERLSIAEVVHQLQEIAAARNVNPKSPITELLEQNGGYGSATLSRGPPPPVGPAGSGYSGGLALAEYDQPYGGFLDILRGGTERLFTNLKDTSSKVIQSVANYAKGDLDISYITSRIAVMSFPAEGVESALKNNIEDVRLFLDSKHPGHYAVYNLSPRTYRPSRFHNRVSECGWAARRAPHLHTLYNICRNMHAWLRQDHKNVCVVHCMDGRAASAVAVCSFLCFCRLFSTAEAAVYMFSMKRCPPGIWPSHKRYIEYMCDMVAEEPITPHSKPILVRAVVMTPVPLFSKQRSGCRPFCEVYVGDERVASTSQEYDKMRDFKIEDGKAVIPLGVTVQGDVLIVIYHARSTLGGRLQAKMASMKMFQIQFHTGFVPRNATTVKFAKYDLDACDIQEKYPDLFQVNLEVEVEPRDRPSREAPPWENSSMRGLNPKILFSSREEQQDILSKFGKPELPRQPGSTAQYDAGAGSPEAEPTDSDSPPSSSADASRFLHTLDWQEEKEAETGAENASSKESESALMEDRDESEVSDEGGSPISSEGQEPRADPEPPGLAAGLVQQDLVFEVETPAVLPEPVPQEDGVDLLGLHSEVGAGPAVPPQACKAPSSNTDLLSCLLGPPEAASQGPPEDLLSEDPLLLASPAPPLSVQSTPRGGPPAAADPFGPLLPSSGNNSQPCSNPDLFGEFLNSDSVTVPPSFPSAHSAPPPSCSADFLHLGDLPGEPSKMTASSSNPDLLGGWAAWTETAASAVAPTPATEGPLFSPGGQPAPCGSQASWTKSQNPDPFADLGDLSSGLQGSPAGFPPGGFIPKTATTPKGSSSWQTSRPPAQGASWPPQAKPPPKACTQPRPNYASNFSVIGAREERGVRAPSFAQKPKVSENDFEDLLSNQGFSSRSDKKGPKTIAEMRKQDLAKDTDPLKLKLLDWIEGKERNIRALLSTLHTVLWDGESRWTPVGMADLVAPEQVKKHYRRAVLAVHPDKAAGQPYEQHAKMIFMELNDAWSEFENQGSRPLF

[4] = target: T4, Phosphatidylinositol 5-phosphate 4-kinase type-2 gamma (Homo sapiens, UniProt Q8TBX8)
T4 sequence (Q8TBX8 whole entry): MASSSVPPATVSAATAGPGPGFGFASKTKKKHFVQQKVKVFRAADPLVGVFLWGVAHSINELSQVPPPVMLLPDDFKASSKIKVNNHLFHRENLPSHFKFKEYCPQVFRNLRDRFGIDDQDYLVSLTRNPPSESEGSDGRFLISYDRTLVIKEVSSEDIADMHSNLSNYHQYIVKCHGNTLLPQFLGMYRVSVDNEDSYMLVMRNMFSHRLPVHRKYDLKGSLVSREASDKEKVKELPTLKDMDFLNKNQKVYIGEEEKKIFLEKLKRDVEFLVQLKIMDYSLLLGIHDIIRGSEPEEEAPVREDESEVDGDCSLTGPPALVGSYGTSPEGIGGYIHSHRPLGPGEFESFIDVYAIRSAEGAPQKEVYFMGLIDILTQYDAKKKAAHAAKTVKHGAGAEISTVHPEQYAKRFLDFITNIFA

[5] = target: Receptor-interacting serine/threonine-protein kinase 2 (Homo sapiens, UniProt O43353)
Also: in the data inactive means no Kd found up to 30 µM.

Chain of Receptor-interacting serine/threonine-protein kinase 2 (O43353 whole entry): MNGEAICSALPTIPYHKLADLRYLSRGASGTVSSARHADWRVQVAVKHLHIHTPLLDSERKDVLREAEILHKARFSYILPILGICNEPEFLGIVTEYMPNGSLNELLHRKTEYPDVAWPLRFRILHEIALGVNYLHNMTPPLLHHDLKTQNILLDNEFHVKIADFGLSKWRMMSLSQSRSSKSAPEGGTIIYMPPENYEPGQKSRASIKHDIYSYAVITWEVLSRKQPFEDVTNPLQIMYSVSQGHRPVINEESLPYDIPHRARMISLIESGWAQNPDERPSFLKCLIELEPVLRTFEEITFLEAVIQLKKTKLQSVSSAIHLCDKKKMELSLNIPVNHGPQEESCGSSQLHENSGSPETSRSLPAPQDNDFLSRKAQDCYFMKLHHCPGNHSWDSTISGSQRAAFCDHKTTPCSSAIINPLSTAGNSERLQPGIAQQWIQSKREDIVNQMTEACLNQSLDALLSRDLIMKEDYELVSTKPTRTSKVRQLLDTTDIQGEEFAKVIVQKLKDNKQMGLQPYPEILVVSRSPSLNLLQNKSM

SMILES | Kd [1] | Kd [2] | Kd [3] | Kd [4] | Kd [5]
C[C@@H](Oc1cc(C(=O)Nc2ccc(C(=O)N3CCN(C)CC3)cc2)nnc1N)c1c(Cl)ccc(F)c1Cl | > 30 µM (inactive) | > 30 µM (inactive) | > 30 µM (inactive) | > 30 µM (inactive) | > 30 µM (inactive)
C[C@H]1CNCCCN1S(=O)(=O)c1cccc2cncc(F)c12 | 3.7 µM (active) | > 30 µM (inactive) | > 30 µM (inactive) | > 30 µM (inactive) | > 30 µM (inactive)
CC(=O)c1cnc2ccc(-c3cc(Cl)c(O)c(Cl)c3)nc2c1N[C@H]1CC[C@H](CN(C)C)CC1 | 0.069 µM (active) | 0.397 µM (active) | 0.005 µM (active) | 0.003 µM | 0.005 µM (active)
CCNC(=O)C#Cc1ccc2c(c1)NC(=O)/C2=C(\Nc1ccc(CN(C)C)cc1)c1ccccc1 | > 30 µM (inactive) | > 30 µM (inactive) | > 30 µM (inactive) | > 30 µM (inactive) | > 30 µM (inactive)
C=CC(=O)N1CCC[C@H](n2c(=O)n(-c3ccc(Oc4ccccc4)cc3)c3c(N)ncnc32)C1 | > 30 µM (inactive) | > 30 µM (inactive) | > 30 µM (inactive) | > 30 µM (inactive) | 0.007 µM
Cc1nc2cc(-c3nn(C(C)C)c4ncnc(N)c34)ccc2o1 | > 30 µM (inactive) | > 30 µM (inactive) | > 30 µM (inactive) | > 30 µM (inactive) | 0.178 µM (active)
COCc1c(-c2ccc(NC(=O)Nc3cc(C(F)(F)F)ccc3F)c(F)c2)c2c(N)ncnn2c1CN1CCOCC1 | > 30 µM (inactive) | > 30 µM (inactive) | > 30 µM (inactive) | > 30 µM (inactive) | > 30 µM (inactive)
COc1cc(Nc2ncc3c(n2)-c2ccc(Cl)cc2C(c2c(F)cccc2OC)=NC3)ccc1C(=O)O [ALISERTIB] |  |  | > 30 µM (inactive) |  | > 30 µM (inactive)
Cc1nc(NC(=O)N2CCC[C@H]2C(N)=O)sc1-c1ccnc(C(C)(C)C(F)(F)F)c1 [ALPELISIB] | > 30 µM (inactive) | > 30 µM (inactive) | 4.97 µM (active) |  | > 30 µM (inactive)
Cc1csc(-c2nnc(Nc3ccc(Oc4ncccc4-c4ccnc(N)n4)cc3)c3ccccc23)c1 [AMG-900] | 5.67 µM (active) | > 30 µM (inactive) | > 30 µM (inactive) |  | > 30 µM (inactive)
O=C(Nc1c[nH]nc1-c1nc2cc(CN3CCOCC3)ccc2[nH]1)NC1CC1 [AT-9283] |  |  |  | > 30 µM (inactive) | > 30 µM (inactive)
CCn1cc(-c2ccnc3[nH]c(-c4cccc(CN(C)C)c4)cc23)c(-c2ccc(NC(=O)N(C)C)cc2)n1 [GSK-1070916] |  | > 30 µM (inactive) |  |  | 0.611 µM (active)
O=C(Nc1cc(C(F)(F)F)cc(C(F)(F)F)c1)c1cc(Cl)ccc1O [IMD-0354] |  | > 30 µM (inactive) | > 30 µM (inactive) | > 30 µM (inactive) | > 30 µM (inactive)
Cc1[nH]c(/C=C2\C(=O)Nc3ccccc32)c(C)c1CCC(=O)O [ORANTINIB] |  |  | 2.09 µM (active) |  | > 30 µM (inactive)
NC(=O)c1c(OCc2c(F)cc(Br)cc2F)nsc1NC(=O)NCCCCN1CCCC1 [OSI-632] |  |  | > 30 µM (inactive) |  | 0.958 µM (active)
Cc1nc(Nc2n[nH]c3c2CN(C(=O)N[C@H](CN(C)C)c2ccccc2)C3(C)C)c2sccc2n1 [PF-03758309] |  | 0.053 µM (active) | 1.95 µM (active) | > 30 µM (inactive) | > 30 µM (inactive)
CC(=O)NCC(=O)N1[C@@H]2CC[C@H]1c1ccc(Nc3ncc(C(F)(F)F)c(NC4CCC4)n3)cc12 [PF-03814735] |  |  | 1.76 µM (active) | > 30 µM (inactive) | > 30 µM (inactive)
CN1CCN(CCOc2cc(OC3CCOCC3)c3c(Nc4c(Cl)ccc5c4OCO5)ncnc3c2)CC1 [SARACATINIB] | > 30 µM (inactive) | > 30 µM (inactive) |  | > 30 µM (inactive) | 0.002 µM (active)
Cn1ncc(Cl)c1-c1cc(C(=O)N[C@H](CN)Cc2ccc(F)c(F)c2)oc1Cl [UPROSERTIB] |  | > 30 µM (inactive) | > 30 µM (inactive) | > 30 µM (inactive) | > 30 µM (inactive)
